# Laboratory results: ChEMBL document CHEMBL1649551, “Antifungal activity of tamoxifen: in vitro and in vivo activities and mechanistic characterization” (2009)
# Activity calls are given as the source filed them. No cut-off for these calls is given here.
# How the values were obtained:
# [1] = target: Calmodulin (Saccharomyces cerevisiae S288c) (UniProt P06787); test: Inhibition of Myo2-GFP binding to Saccharomyces cerevisiae BY4741 calmodulin at 50 ug/ml by Western blot analysis
# Candida albicans [2] = test: Antifungal activity against Candida albicans ATCC 90028 after 24 hrs by CLSI method; format: functional; conditions: ATCC 90028, 24 h
# Candida tropicalis = test: Antifungal activity against Candida tropicalis MR064-H after 24 hrs by CLSI method; format: functional
# Candida parapsilosis = test: Antifungal activity against Candida parapsilosis R058-G12 after 24 hrs by CLSI method; format: functional; conditions: Lodderomyces parapsilosis, R058-G12, 24 h
# Candida dubliniensis = test: Antifungal activity against Candida dubliniensis CD1 after 24 hrs by CLSI method; format: functional; conditions: CD1, 24 h
# Cryptococcus neoformans [3] = test: Antifungal activity against Cryptococcus neoformans NYS3-81 after 24 hrs by CLSI method; format: functional; conditions: NYS3-81, 24 h
# Saccharomyces cerevisiae [4] = test: Antifungal activity against Saccharomyces cerevisiae BY4741 after 24 hrs by CLSI method; format: functional; conditions: BY4741, 24 h
# Candida albicans [5] = test: Antifungal activity against Candida albicans SC5314 after 24 hrs by CLSI method; format: functional; conditions: SC5314, 24 h
# Nakaseomyces glabratus = test: Antifungal activity against Candida glabrata MR084-G12 after 24 hrs by CLSI method; format: functional; conditions: MR084-G12, 24 h
# Cryptococcus neoformans [6] = test: Antifungal activity against Cryptococcus neoformans KN99alpha after 24 hrs by CLSI method; format: functional
# Candida albicans [7] = test: Antifungal activity against Candida albicans SC5314 at 16 ug/ml after 2 hrs by alexa fluor-phalloidin staining; format: functional, organism-based
# Saccharomyces cerevisiae [8] = test: Antifungal activity against Saccharomyces cerevisiae BY4741 at 8 ug/ml by alexa fluor-phalloidin staining; format: functional, organism-based
# Saccharomyces cerevisiae [9] = test: Antifungal activity against Saccharomyces cerevisiae BY4741 assessed as appearance of unbudded cells with more than one nucleus at 8 ug/ml; format: functional
# Saccharomyces cerevisiae [10] = test: Antifungal activity against Saccharomyces cerevisiae BY4741 assessed as inhibition fungal bud formation at 8 ug/ml; format: functional, organism-based
# Saccharomyces cerevisiae [11] = test: Antifungal activity against Saccharomyces cerevisiae BY4741 expressing CMD1 at 62 to 125 ug/mL after 3 days by photographic analysis; format: functional, organism-based
# Saccharomyces cerevisiae [12] = test: Antifungal activity against Saccharomyces cerevisiae BY4741 expressing PKC1 at 62 to 125 ug/mL after 3 days by photographic analysis; format: functional, organism-based
# Candida albicans [13] = test: Antifungal activity against Candida albicans SC5314 infected in BALB/c mouse assessed as fungal count per gram of kidney at 200 mg/kg, po administered for 7 days prior to fungal infection; format: functional
# Chain of Calmodulin (Saccharomyces cerevisiae S288c) (P06787 whole entry): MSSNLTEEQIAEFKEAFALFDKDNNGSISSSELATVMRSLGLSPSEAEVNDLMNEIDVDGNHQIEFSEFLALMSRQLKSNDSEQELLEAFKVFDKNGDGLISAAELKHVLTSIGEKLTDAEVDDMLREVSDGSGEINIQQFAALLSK
inhibition [1],MIC (Candida albicans [2]) [µg/mL],MIC (Candida tropicalis) [µg/mL],MIC (Candida parapsilosis) [µg/mL],MIC (Candida dubliniensis) [µg/mL],MIC (Cryptococcus neoformans [3]) [µg/mL],MIC (Saccharomyces cerevisiae [4]) [µg/mL],MIC (Candida albicans [5]) [µg/mL],MIC (Nakaseomyces glabratus) [µg/mL],MIC (Cryptococcus neoformans [6]) [µg/mL],Structure (SMILES),Activity (Candida albicans [7]),Activity (Saccharomyces cerevisiae [8]),Activity (Saccharomyces cerevisiae [9]) [%],Activity (Saccharomyces cerevisiae [10]),Activity (Saccharomyces cerevisiae [11]),Activity (Saccharomyces cerevisiae [12]),log10cfu (Candida albicans [13])
Active,–,–,–,–,–,–,–,–,–,CN1CCN(CCCN2c3ccccc3Sc3ccc(Cl)cc32)CC1,–,–,–,–,–,–,–
–,> 64,64,64,32,64,18,32,32,64,CCN(CC)CCOc1ccc(C(=C(Cl)c2ccccc2)c2ccccc2)cc1 [CLOMIPHENE],–,–,–,–,–,–,–
Active,32,32,64,16,64,12,32,8,64,CC/C(=C(\c1ccccc1)c1ccc(OCCN(C)C)cc1)c1ccccc1 [TAMOXIFEN],Active,Active,15,Active,Active,Active,1.5
